For 29 molecules, IC50 results are on record in patent US11098026B2, “Fused bicyclic compounds, compositions and applications thereof” (IMPETIS BIOSCIENCES LIMITED, priority 2017, dated 2021).

A value given as a limit tells only on which side of the number the result lay.

In this assay the target is T1, human GPR91 receptor (Homo sapiens, UniProt Q9BXA5).
T1 construct: expressed in transfected cells; host or cells: CHO-K1 NFAT cells
T1 sequence (Q9BXA5 1-334): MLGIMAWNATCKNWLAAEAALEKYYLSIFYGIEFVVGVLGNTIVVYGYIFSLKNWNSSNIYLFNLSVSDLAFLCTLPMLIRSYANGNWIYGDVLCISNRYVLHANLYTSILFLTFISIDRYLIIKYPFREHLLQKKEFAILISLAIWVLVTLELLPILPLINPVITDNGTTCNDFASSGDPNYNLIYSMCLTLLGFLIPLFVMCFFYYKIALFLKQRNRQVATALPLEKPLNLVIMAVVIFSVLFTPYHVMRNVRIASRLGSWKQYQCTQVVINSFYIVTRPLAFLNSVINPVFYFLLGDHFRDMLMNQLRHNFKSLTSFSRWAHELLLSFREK
As to the kind of experiment: Human GPR91 calcium mobilization assay. The class given is cell-based. Particulars: CHO-K1 NFAT cells over expressing human GPR91 receptor; Fluo4 AM; agonist sodium succinate; flex station; read-out: hGPR91 IC50 (μM)*. As to the method: Human GPR91 Calcium Mobilization Assay
To determine IC50 in CHO NFAT cells over expressing human GPR91 receptor calcium mobilization assay in flex station mode was carried out.
Grow CHO-K1 NFAT cells over expressing human GPR91 receptors in alpha MEM media were supplemented with 10% FBS (heat inactivated), 0.5 mg/ml of G-418, 0.5 mg/ml of Zeocin and 0.6 mg/ml of Hygromycin B.
The cells were seeded at least 21 hours before the experiment at the density of 25000/well in 96 well plate (Corning cat #no. 3603). It was made sure that cells were at least 95% confluent on the day of assay. No antibiotics were used for seeding purpose.
On the day of assay the media was discarded from plates and plates were washed with 100 μl of HBSS assay buffer. The plates were loaded with Fluo4 AM at 2 μM concentration. Pluronic F-127 dye was solubilized in calcium assay buffer containing 0.1% BSA, i.e., 20 μl dye+20 μl Pluronic F127 for 10 ml. Appropriate amounts of 100× probenecid was added to the loading mixture 1× final (100 μl per 10 ml). Total volume of dye loaded was made 100 μl. The plate was then wrapped in aluminium foil to protect from light and were incubated for 90 mins at 37 degrees in cell culture incubator. At the end of incubation the plates was washed again with 100 μl of HBSS buffer without BSA and 75 μl of HBSS buffer was added (without BSA) to the plate.
Further, 8 point-Dose response curve of the compounds of the present disclosure was prepared in 100% DMSO followed by 57.14-fold dilution to 1.75× in 1.75% DMSO in assay buffer. 100 μL of 1.75×NCE was added to the wells as shown below and incubated at room temp on orbital shaker at 300 rpm for 15 min. Flexstation [excitation @ 485 nm and emission @ 525 nm] for a total time of 60 seconds. 25 μL of 8× agonist (800 μM sodium succinate) was added to each well using the flexstation after establishing the baseline for 20 sec, Measurement—Max-Min over 60 sec. Using the above protocol results obtained are tabulate din the Table 1 below: […]
(Calcium assays in cells follow changes in intracellular calcium, usually with a dye or a luminescent sensor.)
The term IC50 denotes the point on the concentration scale where inhibition reaches its midpoint. Turning to `Cn1ncc2c(Oc3ccc(Oc4cccc(CC(=O)O)c4)c(C(F)(F)F)c3)cccc21` [Compound A-16, 2-[3-[4-(1-methylindazol-4-yl)oxy-2-(trifluoromethyl)phenoxy]phenyl]acetic acid], the IC50 was below 5 µM. The same measure for `O=C(O)Cc1cccc(Oc2ccc(Oc3cccc4nncn34)cc2C(F)(F)F)c1` [Compound A-17, 2-[3-[4-([1,2,4]triazolo[4,3-a]pyridin-5-yloxy)-2-(trifluoromethyl)phenoxy]phenyl]acetic acid]: above 10 µM; for `O=C(O)Cc1cccc(Oc2ccc(Oc3ccc4c(c3)NCCO4)cc2C(F)(F)F)c1` [Compound A-18, 2-[3-[4-(3,4-dihydro-2H-1,4-benzoxazin-6-yloxy)-2-(trifluoromethyl)phenoxy]phenyl]acetic acid]: below 5 µM; for `O=C(O)Cc1cccc(Oc2ccc(Oc3ccn4cnnc4c3)cc2C(F)(F)F)c1` [Compound A-19, 2-[3-[4-([1,2,4]triazolo[4,3-a]pyridin-7-yloxy)-2-(trifluoromethyl)phenoxy]phenyl]acetic acid]: above 10 µM. In the case of `O=C(O)Cc1cccc(Oc2ccc(Oc3ccc4ccn(C5COC5)c4c3)cc2C(F)(F)F)c1` [Compound A-20, 2-[3-[4-[1-(oxetan-3-yl)indol-6-yl]oxy-2-(trifluoromethyl)phenoxy]phenyl]acetic acid], the IC50 was below 5 µM. Regarding `O=C(O)Cc1cccc(Oc2ccc(Oc3ccc4cnn(C5COC5)c4c3)cc2C(F)(F)F)c1` [Compound A-21, 2-[3-[4-[1-(oxetan-3-yl)indazol-6-yl]oxy-2-(trifluoromethyl)phenoxy]phenyl]acetic acid], the IC50 is below 5 µM. The same measure for `O=C(O)Cc1cccc(Oc2ccc(Oc3ccc4cn(C5COC5)nc4c3)cc2C(F)(F)F)c1` [Compound A-22, 2-[3-[4-[2-(oxetan-3-yl)indazol-6-yl]oxy-2-(trifluoromethyl)phenoxy]phenyl]acetic acid]: below 5 µM; for `O=C(O)Cc1cccc(Oc2ccc(Oc3ccc4c(cnn4C4COC4)c3)cc2C(F)(F)F)c1` [Compound A-23, 2-[3-[4-[1-(oxetan-3-yl)indazol-5-yl]oxy-2-(trifluoromethyl)phenoxy]phenyl]acetic acid]: above 10 µM.

`O=C(O)Cc1cccc(Oc2ccc(Oc3ccc4nn(C5COC5)cc4c3)cc2C(F)(F)F)c1` [Compound A-24, 2-[3-[4-[2-(oxetan-3-yl)indazol-5-yl]oxy-2-(trifluoromethyl)phenoxy]phenyl]acetic acid]: the IC50 was above 10 µM. The same measure for `O=C(O)Cc1cccc(Oc2ccc(Oc3ccc4nnn(C5COC5)c4c3)cc2C(F)(F)F)c1` [Compound A-25, 2-[3-[4-[3-(oxetan-3-yl)benzotriazol-5-yl]oxy-2-(trifluoromethyl)phenoxy]phenyl]acetic acid]: below 5 µM. The same measure for `O=C(O)Cc1cccc(Oc2ccc(Oc3ccc4ncn(C5COC5)c4c3)cc2C(F)(F)F)c1` [Compound A-26, 2-[3-[4-[3-(oxetan-3-yl)benzimidazol-5-yl]oxy-2-(trifluoromethyl)phenoxy]phenyl]acetic acid]: below 5 µM. The figure for `Cc1nc2ccc(Oc3ccc(Oc4cccc(CC(=O)O)c4)c(C(F)(F)F)c3)cc2n1C1COC1` [Compound A-27, 2-[3-[4-[2-methyl-3-(oxetan-3-yl)benzimidazol-5-yl]oxy-2-(trifluoromethyl)phenoxy]phenyl]acetic acid] is below 5 µM; for `Cc1nc2ccc(Oc3ccc(Oc4cccc(CC(=O)O)c4)c(C(F)F)c3)cc2n1C1COC1` [Compound A-28, 2-[3-[2-(difluoromethyl)-4-[2-methyl-3-(oxetan-3-yl)benzimidazol-5-yl]oxy-phenoxy]phenyl]acetic acid] it is below 5 µM; for `O=C(O)Cc1cccc(Oc2ccc(Oc3cnc4ncn(C5COC5)c4c3)cc2C(F)(F)F)c1` [Compound A-29, 2-[3-[4-[1-(oxetan-3-yl)imidazo[4,5-b]pyridin-6-yl]oxy-2-(trifluoromethyl)phenoxy]phenyl]acetic acid] it is above 10 µM.

With `O=C(O)Cc1cccc(Oc2ccc(Oc3ccc4ccn(C5COC5)c4n3)cc2C(F)(F)F)c1` [Compound A-30, 2-[3-[4-[1-(oxetan-3-yl)pyrrolo[2,3-b]pyridin-6-yl]oxy-2-(trifluoromethyl)phenoxy]phenyl]acetic acid], the IC50 is above 10 µM. On to `O=C(O)Cc1cccc(Oc2ccc(Oc3ccc4cnc(C(=O)O)n4c3)cc2C(F)(F)F)c1` [Compound A-31, 6-[4-[3-(carboxymethyl)phenoxy]-3-(trifluoromethyl)phenoxy]imidazo[1,5-a]pyridine-3-carboxylic acid], for which the IC50 was below 5 µM. On to `O=C(O)Cc1cccc(Oc2ccc(Oc3ccc4c(ccn4CC(=O)O)c3)cc2C(F)(F)F)c1` [Compound A-32, 2-[3-[4-[1-(carboxymethyl)indol-5-yl]oxy-2-(trifluoromethyl)phenoxy]phenyl]acetic acid], for which the IC50 was above 10 µM. Take `O=C(O)Cc1cccc(Oc2ccc(Oc3ccc4ccn(CC(=O)O)c4c3)cc2C(F)(F)F)c1` [Compound A-33, 2-[3-[4-[1-(carboxymethyl)indol-6-yl]oxy-2-(trifluoromethyl)phenoxy]phenyl]acetic acid]: the IC50 is below 5 µM.

Regarding `O=C(O)CCc1ccc(Oc2ccc(Oc3cccc4ccncc34)cc2C(F)(F)F)cc1` [Compound A-34, 3-[4-[4-(8-isoquinolyloxy)-2-(trifluoromethyl)phenoxy]phenyl]propanoic acid], the IC50 is below 5 µM.

For the molecule `Cn1cc2cc(Oc3ccc(Oc4cccc(CCC(=O)O)c4)c(C(F)(F)F)c3)ccc2n1` [Compound A-35, 3-[3-[4-(2-methylindazol-5-yl)oxy-2-(trifluoromethyl)phenoxy]phenyl]propanoic acid], the IC50 was below 5 µM. For the molecule `O=C(O)Cc1cccc(Oc2ncc(Oc3cccc4ccncc34)cc2C(F)(F)F)c1` [Compound A-36, 2-[3-[[5-(8-isoquinolyloxy)-3-(trifluoromethyl)-2-pyridyl]oxy]phenyl]acetic acid], the IC50 was below 5 µM. Turning to `O=C(O)CCc1cccc(Oc2ccc(Oc3cccc4nccn34)cc2C(F)(F)F)c1` [Compound A-37, 3-[3-[4-imidazo[1,2-a]pyridin-5-yloxy-2-(trifluoromethyl)phenoxy]phenyl]propanoic acid], the IC50 was above 10 µM. With `O=C(O)Cc1cccc(Oc2ccc(Oc3cccc4ccncc34)cc2C2CC2)c1` [Compound A-38, 2-[3-[2-cyclopropyl-4-(8-isoquinolyloxy)phenoxy]phenyl]acetic acid], the IC50 is below 5 µM. With `Cc1nc2ccc(Oc3ccc(Oc4cccc(CC(=O)O)c4)c(C4CC4)c3)cc2n1C1COC1` [Compound A-39, 2-[3-[2-cyclopropyl-4-[2-methyl-3-(oxetan-3-yl)benzimidazol-5-yl]oxy-phenoxy]phenyl]acetic acid], the IC50 is below 5 µM. For `O=C(O)Cc1cccc(Oc2ccc(Oc3cccc4ccnc(Cl)c34)cc2C(F)(F)F)c1` [Compound A-40, 2-[3-[4-[(1-chloro-8-isoquinolyl)oxy]-2-(trifluoromethyl)phenoxy]phenyl]acetic acid], the IC50 is below 5 µM. Take `Cc1nccc2cccc(Oc3ccc(Oc4cccc(CC(=O)O)c4)c(C(F)(F)F)c3)c12` [Compound A-41, 2-[3-[4-[(1-methyl-8-isoquinolyl)oxy]-2-(trifluoromethyl)phenoxy]phenyl]acetic Acid]: the IC50 was below 5 µM.

For the molecule `O=C(O)CCc1cccc(Oc2ccc(Oc3cccc4ccncc34)cc2C(F)(F)F)c1` [Compound A-42, 3-[3-[4-(8-isoquinolyloxy)-2-(trifluoromethyl)phenoxy]phenyl]propanoic acid], the IC50 was below 5 µM. As to `O=C(O)CCc1cccc(Oc2ccc(Oc3cccc4c3CNCC4)cc2C(F)(F)F)c1` [Compound A-43, 3-[3-[4-(1,2,3,4-tetrahydroisoquinolin-8-yloxy)-2-(trifluoromethyl)phenoxy]phenyl]propanoic acid], the IC50 is above 10 µM.

Take `O=C(O)CCc1cccc(Oc2ccc(OC3CCc4ccccc43)cc2C(F)(F)F)c1` (centres unmarked) [Compound A-44, 3-[3-[4-indan-1-yloxy-2-(trifluoromethyl)phenoxy]phenyl]propanoic acid]: the IC50 is 5 to 10 µM.
